Source: patent US7713960B2, “Inhibition of the Raf/Mek/P-Erk pathway for treating cancer” (University of South Florida, priority 2005, dated 2010)
“And” between values parts separate entries of the source, which are not always exact repeats. Equal values may be shown once. Where a name gives a salt, the structure may show the parent alone.

How the values were obtained:
MDA-MB-231 cells = experiment: Immunohistochemistry of MDA-MB-231 xenograft tumors (P-Erk 1/2, Tunel, Ki-67); type: in vivo, nude mice; settings: 75 mpk/day, tumors removed on day 12
From the text: Anti-tumor activity in nude mouse xenograft model—Female athymic nude (nu/nu) mice, 5-6 weeks old, were purchased from Charles River (Wilmington, Mass.) and allowed to acclimate in the animal facility for one week. After harvesting, A-549, SNB-19, ACHN, and HCT-116 cells were, resuspended in sterile PBS, and injected s.c. into the right and left flanks (10×10^6 cells per flank) of the mice as previously described (Sun et al., 2005). For MDA-MB-231, cells were harvested and resuspended in PBS (10×10^6 cells per 50 μl) and an equal volume of Matrigel (BD Biosciences, San Jose, Calif.). 100 μl of MDA-MB-231 cells in PBS/Matrigel were injected s.c. into the mammary fat pads between the 2nd and 3rd nipples on each side of the mice. Once the tumors reached approximately 200-300 mm^3 the mice were randomized and treated i.p. with 0.1 ml vehicle (PBS) or ARA-211. Each treatment group consisted of five mice (2 tumors per mouse, a total of 10 tumors). The tumor volumes were determined by measuring the length (l) and width (w) and calculating the volume (V=w^2l/2). Statistical significance between the control and treated animals was determined using a student's t test. Immunohistochemisty (IHC) and slide quantitation—Upon completion of the xenograft study, mice were euthanized and the tumors were removed and fixed in 10% buffered formalin for at least 24 hours. […] The IHC slides were analyzed at the Analytical Microscopy Core facility of the H. Lee Moffitt Cancer Center & Research Institute. The Ariol SL-50 automated image analysis system (Applied Imaging, Santa Clara, Calif.) was used for quantitation of each slide as previously described (Jiang et al., 2004). Briefly, high-resolution digital pictures were taken of the entire stained area of each slice of tumor tissue for automatic staining quantitation. […] Each slide analyzed consisted of 54,000 to 160,000 cells analyzed depending on the size of the tumor when resected. Significance of the quantitation was analyzed by a two-tailed student's t-test.

Mek-1 = target: T1, Mek-1 (Homo sapiens, UniProt Q02750); experiment: In vitro kinase assay, Mek-1 immunoprecipitated from MDA-MB-231 cells; type: biochemical; settings: immunoprecipitated kinase treated in vitro, 10 μM
T1 construct: c-Raf-1 and Mek-1, immunoprecipitated from MDA-MB-231 cells; endogenous in cells; host or cells: MDA-MB-231
T1 sequence (Q02750 whole entry): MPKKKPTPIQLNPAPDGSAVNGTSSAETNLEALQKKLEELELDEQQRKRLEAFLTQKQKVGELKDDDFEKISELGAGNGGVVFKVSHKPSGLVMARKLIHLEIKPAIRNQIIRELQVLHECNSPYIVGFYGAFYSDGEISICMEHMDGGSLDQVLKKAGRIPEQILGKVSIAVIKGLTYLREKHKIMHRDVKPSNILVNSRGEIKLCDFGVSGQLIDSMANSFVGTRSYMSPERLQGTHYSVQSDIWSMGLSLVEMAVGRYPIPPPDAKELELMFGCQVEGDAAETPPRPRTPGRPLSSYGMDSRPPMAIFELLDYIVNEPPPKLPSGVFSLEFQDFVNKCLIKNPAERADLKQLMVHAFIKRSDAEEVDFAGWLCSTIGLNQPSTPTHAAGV
Method: In Vitro Kinase Assays—MDA-MB-231 cells (2×10^6) were lysed for 30 minutes at 4° C. in RIPA-150 buffer (10 mM Tris pH 7.5, 150 mM NaCl, 10% glycerol, 5 mM EDTA, 1% Triton X-100, 0.1% SDS, 100 μM sodium orthovanadate, 1 μM aprotinin, 10 μM leupeptin, 10 μM antipain). Cell debris was pelleted at 13000 rpm for 15 minutes at 4° C. and the lysate was rocked overnight with 10 μg of either c-Raf or MEK antibodies (Santa Cruz Biotechnologies, Santa Cruz, Calif.). 25 μl of protein A/G PLUS agarose (Santa Cruz Biotechnology) was then added and rocked for 4 hours at 4° C. Samples were spun at 2000 rpm for 5 minutes to collect the agarose beads, which were then washed four times with lysis buffer. On the final wash each pellet was divided into 5. […]

A-549 cells = experiment: Apoptosis assay (Cell Death Detection ELISA), A-549; type: cell-based, human; settings: 48 hours, two single values, dihydrochloride
Method: Apoptosis Assay—Apoptosis was analyzed using the Cell Death Detection ELISA (Roche, Indianapolis, Ind.) measuring cytoplasmic histone-associated mono- and oligonucleosome DNA fragments. Procedures were carried out according to the manufacturers protocol. Briefly, 1×10^5 cells were plated in 60 mm dishes and treated with various doses of ARA-211 or vehicle for 48 hours. Cells were lysed with the provided lysis buffer and lysate was incubated on the ELISA plate for 1 hour to capture the histone associated DNA indicative of apoptotic cells. Anti-DNA peroxidase conjugated antibody was added to detect the cleaved DNA and the microplate was washed and developed with ABTS substrate which was quantitated by microplate reader at 405 nm.

P-Erk 1/2 = P-Erk 1/2 levels (Western blotting), SF-539; type: cell-based, human
Method: Western Blotting—Treated cell samples were lysed in 30 mM HEPES, 10 mM NaCl, 5 mM MgCl2, 25 mM NaF, 1 mM EGTA, 1% Triton-X-100, 10% Glycerol, 2 mM Sodium orthovanidate, 10 μg/mL aprotinin, 10 μg/mL soybean trypsin inhibitor, 25 μg/mL leupeptin, 2 mM phenylmethylsulfonylfluoride (PMSF), 6.4 mg/mL p-nitrophenylphosphate for 30 minutes at 4° C., and proteins run on SDS-PAGE gels then transferred to nitrocellulose membranes. Membranes were blocked in either 5% milk in PBS, pH 7.4, containing 0.1% Tween-20 (PBS-T) or 1% BSA in TBS, pH 7.5, containing 0.1% Tween-20 (TBS-T). Phospho-STAT3 and phospho-AKT antibodies were diluted in 1% BSA in TBS-T while phospho-c-Raf, phospho-Mek, and phospho-p44/p42 MAPK antibodies (Cell Signaling) were diluted in 5% milk in PBS-T for either 1 hour at room temperature or overnight at 4° C. HRP-conjugated secondary antibodies (Jackson ImmunoResearch, West Grove, Pa.) were diluted in 5% milk in PBS-T or TBS-T at a 1:1000 dilution for one hour at room temperature. Western blots results were visualized using enhanced chemiluminescence. Stripping of the membranes for reblotting was done using stripping buffer (62.5 mM Tris pH 7.6, 2% SDS, 0.7% 2-mercaptoethanol) at 50° C. for 30 minutes.

CC(C)(C)NCC(O)c1ccc(O)c(CO)n1 (stereo not drawn) [ARA-211, 2-hydroxymethyl-3-hydroxy-6-(1-hydroxy-2-tert-butylaminoethyl) pyridine, dihydrochloride]
P-Erk 1/2 levels in tumors (IHC) (MDA-MB-231 cells): suppresses P-Erk 1/2 levels
apoptosis in tumors (Tunel) (MDA-MB-231 cells): induces apoptosis
tumor cell proliferation in tumors (Ki-67) (MDA-MB-231 cells): inhibits tumor cell growth
in vitro Mek-1 kinase activity (Mek-1): did not inhibit
Apoptosis (% Induction) (A-549 cells): 3.1% and 2.2%
P-Erk ½ (% Inhibition) (P-Erk 1/2): 100%
